Data taken from patent US10493082B2, “4-pregenen-11β-17-21-triol-3,20-dione derivatives” (Allergan, Inc., priority 2011, dated 2019).

Tests used:
[1] = molecular target: T1, Glucocorticoid receptor (GR) (Homo sapiens, UniProt P04150); test: Glucocorticoid receptor transactivation, MMTV-bla HeLa CELLSENSOR β-lactamase reporter, agonist mode; type: cell-based; settings: for % Activation at 100 nM: GR, 5 hours; for greater potency compared to the parent molecule cortisol: GR signaling pathway, relative to cortisol
T1 construct: host or cells: MMTV-bla HeLa CELLSENSOR
T1 sequence (P04150 1-777): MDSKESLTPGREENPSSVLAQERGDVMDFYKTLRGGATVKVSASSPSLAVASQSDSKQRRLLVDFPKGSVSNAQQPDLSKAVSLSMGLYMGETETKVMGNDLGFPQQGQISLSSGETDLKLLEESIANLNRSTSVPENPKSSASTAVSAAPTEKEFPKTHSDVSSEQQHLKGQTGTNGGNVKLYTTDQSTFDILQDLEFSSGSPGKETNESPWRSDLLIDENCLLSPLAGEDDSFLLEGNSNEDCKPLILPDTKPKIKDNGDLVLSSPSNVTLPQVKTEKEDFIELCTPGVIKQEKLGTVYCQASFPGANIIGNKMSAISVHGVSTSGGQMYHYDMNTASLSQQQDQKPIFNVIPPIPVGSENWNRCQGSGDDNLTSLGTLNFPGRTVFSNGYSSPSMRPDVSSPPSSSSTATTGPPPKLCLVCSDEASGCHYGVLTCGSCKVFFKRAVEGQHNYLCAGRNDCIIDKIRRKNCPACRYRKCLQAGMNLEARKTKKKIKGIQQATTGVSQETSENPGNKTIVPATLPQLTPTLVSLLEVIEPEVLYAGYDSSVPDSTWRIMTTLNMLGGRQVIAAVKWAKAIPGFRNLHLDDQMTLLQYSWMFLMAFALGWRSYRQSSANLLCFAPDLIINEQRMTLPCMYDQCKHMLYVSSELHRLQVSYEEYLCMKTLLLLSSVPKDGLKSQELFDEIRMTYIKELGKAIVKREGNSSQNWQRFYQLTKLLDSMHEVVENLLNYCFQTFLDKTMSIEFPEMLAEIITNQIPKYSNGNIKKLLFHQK
Method: Glucocorticoid receptor (GR) activation potency was assessed using a HeLa cell line containing the MMTV-bla reporter (MMTV-bla HeLa CELLSENSOR®, Invitrogen Corp., Carlsbad, Calif.). This cell line was stably transfected with an expression construct containing β-lactamase cDNA under control of the MMTV response element previously identified as a glucocorticoid receptor response element. […] All assays were performed as 10-point dose responses using a half log-fold dilution series starting with a maximum compound concentration of 100 nM. The compounds were incubated for 5 hours. The activation of endogenous GR leads to expression of the reporter β-lactamase which is detected by the conversion of a FRET substrate in a ratiometric assay format. This functional assay allows for measurement of receptor agonism by compounds and can be used to determine compound potency and selectivity. Assay reproducibility was determined by calculating Z′ values for untreated versus maximum stimulation.

[2] = molecular target: T2, fusion protein GAL4(DBD)-MR(LBD) (Homo sapiens, UniProt P08235); test: Mineralocorticoid receptor transactivation, UAS-bla HEK 293T CELLSENSOR β-lactamase reporter, agonist mode; type: cell-based; settings: for % Activation at 100 nM: MR, UAS-bla HEK 293T, agonist mode, 16 hours
T2 sequence (P08235 726-964 limits assumed): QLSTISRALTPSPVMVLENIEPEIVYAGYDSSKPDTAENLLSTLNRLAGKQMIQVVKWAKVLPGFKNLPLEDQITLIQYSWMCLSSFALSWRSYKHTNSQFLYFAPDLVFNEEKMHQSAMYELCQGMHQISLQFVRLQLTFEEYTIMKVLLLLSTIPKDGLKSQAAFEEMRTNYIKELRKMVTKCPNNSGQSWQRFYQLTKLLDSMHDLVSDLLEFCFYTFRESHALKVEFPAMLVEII
Method: Mineralocorticoid receptor (MR) activation potency was assessed using a HEK 293T cell line containing the UAS-bla reporter (UAS-bla HEK 293T CELLSENSOR®). This cell line was stably cotransfected with an expression construct containing β-m lactamase cDNA under control of the GAL4 Upstream Activator Sequence (UAS) and another expression construct encoding for the fusion protein GAL4(DBD)-MR(LBD). […] All assays were performed as 10-point dose responses using a half log-fold dilution series starting with a maximum compound concentration of 100 nM. The compounds were incubated for 16 hours. The activation of the fusion protein GAL4(DBD)-MR(LBD) leads to expression of the reporter β-lactamase which is detected by the conversion of a FRET substrate in a ratiometric assay format. This functional assay allows for measurement of receptor agonism by compounds and can be used to determine compound potency and selectivity. Assay reproducibility was determined by calculating Z′ values for untreated versus maximum stimulation.

[3] = patients, applied locally via eye drops, compared to dexamethasone, prednisolone and fluorometholone; cited from earlier work

## C[C@]12CCC(=O)C=C1CC[C@@H]1[C@@H]2[C@@H](O)C[C@@]2(C)[C@H]1CC[C@]2(OC(=O)CCS(=O)(=O)c1ccccc1)C(=O)CO [drawing 14]
[1]; MMTV-bla HeLa, agonist mode
  % Activation at 100 nM: 17%
[1]; MMTV-bla HeLa, agonist mode, 5 hours incubation, max concentration 100 nM, one experiment in duplicate
  EC50: > 100 nM

## C[C@]12CCC(=O)C=C1CC[C@@H]1[C@@H]2[C@@H](O)C[C@@]2(C)[C@H]1CC[C@]2(OC(=O)C1CCCC1)C(=O)CO [cortisol 17-cyclopentanoate]
[1]
  greater potency compared to the parent molecule cortisol: about 30 fold

## C[C@]12CCC(=O)C=C1CC[C@@H]1[C@@H]2[C@@H](O)C[C@@]2(C)[C@H]1CC[C@]2(OC(=O)c1ccccc1)C(=O)CO [cortisol 17-benzoate]
[1]
  greater potency compared to the parent molecule cortisol: about 30 fold

## C[C@]12CCC(=O)C=C1CC[C@@H]1[C@@H]2[C@@H](O)C[C@@]2(C)[C@H]1CC[C@]2(OC(=O)CCS(=O)(=O)c1ccccc1)C(=O)CO [drawing 18]
[2]
  EC50: 3.48 nM
  % Activation at 100 nM: 79%

## C[C@]12CCC(=O)C=C1CC[C@@H]1[C@@H]2[C@@H](O)C[C@@]2(C)[C@H]1CC[C@]2(OC(=O)Cc1ccc(Br)cc1)C(=O)CO [drawing 19]
[2]
  EC50: 5.53 nM
  % Activation at 100 nM: 77%

## C[C@]12CCC(=O)C=C1CC[C@@H]1[C@@H]2[C@@H](O)C[C@@]2(C)[C@H]1CC[C@]2(O)C(=O)CO
[1]; MMTV-bla HeLa, agonist mode
  % Activation at 100 nM: 43%

## C[C@]12CCC(=O)C=C1CC[C@@H]1[C@@H]2[C@@H](O)C[C@@]2(C)[C@H]1CC[C@]2(O)C(=O)CO [cortisol]
[3]
  effect on intraocular pressure: minimal effect on intraocular pressure

## C[C@]12CCC(=O)C=C1CC[C@@H]1[C@@H]2[C@@H](O)C[C@@]2(C)[C@H]1CC[C@]2(OC(=O)Cc1ccc(Br)cc1)C(=O)CO [drawing 15]
[1]; MMTV-bla HeLa, agonist mode
  % Activation at 100 nM: 0%
